In ChEMBL document CHEMBL4406816, “Role of sulphur-heterocycles in medicinal chemistry: An update” (Eur J Med Chem, 2019):
Converted amounts (≈) assume the structure as drawn.

Test system: Mycobacterium tuberculosis
Experiment: Antitubercular activity against multidrug resistant Mycobacterium tuberculosis
Format: functional

Compound `O=C(N/N=C/c1ccc([N+](=O)[O-])cc1)[C@H]1CSC(c2ccc(F)cc2)N1` (stereo partly specified) has an MIC of 1.33 µM (≈ 0.498 µg/mL).
